Source: US7317027B2, “Azaindole-derivatives as factor Xa inhibitors” (Sanofi-Aventis Deutschland GmbH, priority 2003, dated 2008)

biological target: T1, human factor Xa (Homo sapiens, UniProt P00742); assay: Factor Xa assay (chromogenic, substrate S-2765); format: biochemical; conditions: inhibition constant for inhibition of factor Xa; IC50 corrected for substrate competition; 0.5 nM enzyme, 140 μM S-2765, 25° C., pH 7.8; read-out: Ki(FXa)
T1 construct: 25 μl human factor Xa (Enzyme Research Laboratories, Inc; South Bend, Ind.) in TBS-PEG; purchased Enzyme Research Laboratories, Inc; South Bend, Ind
T1 sequence (P00742 235-488 limits assumed): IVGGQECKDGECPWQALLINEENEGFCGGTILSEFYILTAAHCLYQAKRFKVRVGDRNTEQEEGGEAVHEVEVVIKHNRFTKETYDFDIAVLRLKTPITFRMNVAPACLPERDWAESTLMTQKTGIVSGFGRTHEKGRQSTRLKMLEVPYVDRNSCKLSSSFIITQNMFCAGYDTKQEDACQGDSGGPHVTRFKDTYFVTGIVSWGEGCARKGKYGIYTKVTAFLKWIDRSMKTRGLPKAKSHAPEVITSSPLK
T1 sequence (P00742 41-179 partner limits assumed): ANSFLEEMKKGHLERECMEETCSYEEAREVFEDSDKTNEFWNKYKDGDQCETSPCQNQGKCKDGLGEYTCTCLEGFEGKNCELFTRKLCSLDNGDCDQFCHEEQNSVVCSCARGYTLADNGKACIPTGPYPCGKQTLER
Procedure: The ability of the compounds of the formula I to inhibit factor Xa or factor VIIa or other enzymes like thrombin, plasmin, or trypsin can be assessed by determining the concentration of the compound of the formula I that inhibits enzyme activity by 50%, i. e. the IC50 value, which was related to the inhibition constant Ki. Purified enzymes were used in chromogenic assays. The concentration of inhibitor that causes a 50% decrease in the rate of substrate hydrolysis was determined by linear regression after plotting the relative rates of hydrolysis (compared to the uninhibited control) versus the log of the concentration of the compound of formula I. For calculating the inhibition constant Ki, the IC50 value was corrected for competition with substrate using the formula Ki=IC50/{1+(substrate concentration/Km)} wherein Km is the Michaelis-Menten constant (Chen and Prusoff, Biochem. Pharmacol. 22 (1973), 3099-3108; I. H. Segal, Enzyme Kinetics, 1975, John Wiley & Sons, New York, 100-125; which were incorporated herein by reference). a) Factor Xa Assay
In the assay for determining the inhibition of factor Xa activity TBS-PEG buffer (50 mM Tris-HCl, pH 7.8, 200 mM NaCl, 0.05% (w/v) PEG-8000, 0.02% (w/v) NaN3) was used. The IC50 was determined by combining in appropriate wells of a Costar half-area microtiter plate 25 μl human factor Xa (Enzyme Research Laboratories, Inc.; South Bend, Ind.) in TBS-PEG; 40 μl 10% (v/v) DMSO in TBS-PEG (uninhibited control) or various concentrations of the compound to be tested diluted in 10% (v/v) DMSO in TBS-PEG; and substrate S-2765 (N(α)-benzyloxycarbonyl-D-Arg-Gly-L-Arg-p-nitroanilide; Kabi Pharmacia, Inc.; Franklin, Ohio) in TBS-PEG.
The assay was performed by pre-incubating the compound of formula I plus enzyme for 10 min. Then the assay was initiated by adding substrate to obtain a final volume of 100 μl. The initial velocity of chromogenic substrate hydrolysis was measured by the change in absorbance at 405 nm using a Biotek Instruments kinetic plate reader (Ceres UV900HDi) at 25° C. during the linear portion of the time course (usually 1.5 min after addition of substrate). The enzyme concentration was 0.5 nM and substrate concentration was 140 μM.

SMILES	Ki [nM]
COC(=O)c1cnc2c(c1)cc(C(=O)NC1CCN(C(C)C)CC1)n2Cc1cc(-c2ccc(Cl)s2)on1 [Example 2, 1-[5-(5-Chloro-thiophen-2-yl)-isoxazol-3-ylmethyl]-2-(1-isopropyl-piperidin-4-ylcarbamoyl)-1H-pyrrolo[2,3-b]pyridine-5-carboxylic acid methyl ester]	55
CC(C)N1CCC(NC(=O)c2cc3cc(C(=O)O)cnc3n2Cc2cc(-c3ccc(Cl)s3)on2)CC1 [Example 3, 1-[5-(5-Chloro-thiophen-2-yl)-isoxazol-3-ylmethyl]-2-(1-isopropyl-piperidin-4-ylcarbamoyl)-1H-pyrrolo[2,3-b]pyridine-5-carboxylic acid]	67
CC(C)N1CCC(NC(=O)c2cc3cc(C(N)=O)cnc3n2Cc2cc(-c3ccc(Cl)s3)on2)CC1 [Example 4, 1-[5-(5-Chloro-thiophen-2-yl)-isoxazol-3-ylmethyl]-1H-pyrrolo[2,3-b]pyridine-2,5-dicarboxylic acid 5-amide 2-[(1-isopropyl-piperidin-4-yl)-amide]]	70
O=C(O)c1ccc2c(cc(C(=O)NC3CCN(c4ccncc4)CC3)n2Cc2cc(-c3ccc(Cl)s3)on2)n1 [Example 9, 1-[5-(5-Chloro-thiophen-2-yl)-isoxazol-3-ylmethyl]-2-(3,4,5,6-tetrahydro-2H-[1,4′]bipyridyl-4-ylcarbamoyl)-1H-pyrrolo[3,2-b]pyridine-5-carboxylic acid]	85

Stronger by Ki, values ahead:

Ki [nM]	SMILES
6	CC(C)N1CCC(NC(=O)c2cc3cccnc3n2Cc2cc(-c3ccc(Cl)s3)on2)CC1 [Example 1, 1-[5-(5-Chloro-thiophen-2-yl)-isoxazol-3-ylmethyl]-1H-pyrrolo[2,3-b]pyridine-2-carboxylic acid (1-isopropyl-piperidin-4-yl)-amide]
4	CC(C)N1CCC(NC(=O)c2cc3ncccc3n2Cc2cc(-c3ccc(Cl)s3)on2)CC1 [Example 5, 1-[5-(5-Chloro-thiophen-2-yl)-isoxazol-3-ylmethyl]-1H-pyrrolo[3,2-b]pyridine-2-carboxylic acid (1-isopropyl-piperidin-4-yl)-amide]
10	CC(C)N1CCC(NC(=O)c2cc3nc(C(=O)O)ccc3n2Cc2cc(-c3ccc(Cl)s3)on2)CC1 [Example 6, 1-[5-(5-Chloro-thiophen-2-yl)-isoxazol-3-ylmethyl]-2-(1-isopropyl-piperidin-4-ylcarbamoyl)-1H-pyrrolo[3,2-b]pyridine-5-carboxylic acid]
23	CC(C)N1CCC(NC(=O)c2cc3[nH]c(=O)ccc3n2Cc2cc(-c3ccc(Cl)s3)on2)CC1 [Example 7, 1-[5-(5-Chloro-thiophen-2-yl)-isoxazol-3-ylmethyl]-5-oxo-4,5-dihydro-1H-pyrrolo[3,2-b]pyridine-2-carboxylic acid (1-isopropyl-piperidin-4-yl)-amide]
47	CC(C)N1CCC(NC(=O)c2cc3cc(OCCO)ncc3n2Cc2cc(-c3ccc(Cl)s3)on2)CC1 [Example 11, 1-[5-(5-Chloro-thiophen-2-yl)-isoxazol-3-ylmethyl]-5-(2-hydroxy-ethoxy)-1H-pyrrolo[2,3-c]pyridine-2-carboxylic acid (1-isopropyl-piperidin-4-yl)-amide]
44	CC(C)N1CCC(NC(=O)c2cc3cc(OCCO)ncc3n2CC(=O)Nc2ccc(Cl)cn2)CC1 [Example 13, 1-[(5-Chloro-pyridin-2-ylcarbamoyl)-methyl]-5-(2-hydroxy-ethoxy)-1H-pyrrolo[2,3-c]pyridine-2-carboxylic acid (1-isopropyl-piperidin-4-yl)-amide]
